Laboratory results taken from patent publication US8063021B2, “Ketolide anti-infective compounds” (Kosan Biosciences Incorporated, priority 2003, dated 2011).
Read-outs that look alike come from different tables or passages of the source.

Tests used:
[1] = test system: S. pneumoniae ATCC 700676; assay: microdilution assay MIC, S. pneumoniae ATCC 700676; type: cell-based, Streptococcus pneumoniae
Method: (§1) In Table B, in some instances multiple assays were performed for a compound/strain combination, in which case the reported MIC is the average. S. pneumoniae ATCC 6301, ATCC 700671, and ATCC 49619 and S. aureus ATCC 6538p and ATCC 29213 are erythromycin sensitive strains.

S. aureus ATCC 29213 = assay: microdilution assay MIC, S. aureus ATCC 29213; type: cell-based, Staphylococcus aureus; conditions: S. aureus ATCC 29213, erythromycin sensitive strain, average where multiple assays
Method: as §1

S. aureus ATCC 14154 = assay: microdilution assay MIC, S. aureus ATCC 14154; type: cell-based, Staphylococcus aureus
Method: (§2) In Table B, in some instances multiple assays were performed for a compound/strain combination, in which case the reported MIC is the average.

[2] = test system: S. pneumoniae ATCC 700906; assay: microdilution assay MIC, S. pneumoniae ATCC 700906; type: cell-based, Streptococcus pneumoniae
Method: as §2

S. aureus ATCC 6538p = assay: microdilution assay MIC, S. aureus ATCC 6538p; type: cell-based, Staphylococcus aureus; conditions: erythromycin sensitive strain, average where multiple assays
Method: as §1

H. influenzae ATCC 9006 = assay: microdilution assay MIC, H. influenzae ATCC 9006; type: cell-based, Haemophilus influenzae
Method: as §1

[3] = test system: S. pneumoniae ATCC 700677; assay: microdilution assay MIC, S. pneumoniae ATCC 700677; type: cell-based, Streptococcus pneumoniae
Method: as §1

H. influenzae ATCC 49766 = assay: microdilution assay MIC, H. influenzae ATCC 49766; type: cell-based, Haemophilus influenzae
Method: as §1

[4] = test system: S. epidermidis ATCC 12228; assay: microdilution assay MIC, S. epidermidis ATCC 12228; type: cell-based, Staphylococcus epidermidis
Method: as §1

E. faecalis ATCC 51575 = assay: microdilution assay MIC, E. faecalis ATCC 51575; type: cell-based, Enterococcus faecalis
Method: as §2

[5] = test system: S. pneumoniae ATCC 700905; assay: microdilution assay MIC, S. pneumoniae ATCC 700905; type: cell-based, Streptococcus pneumoniae
Method: as §1

[6] = test system: S. pneumoniae ATCC 700671; assay: microdilution assay MIC, S. pneumoniae ATCC 700671; type: cell-based, Streptococcus pneumoniae; conditions: S. pneumoniae ATCC 700671, erythromycin sensitive strain, average where multiple assays
Method: as §1

S. pneumoniae ATCC 49619 = assay: microdilution assay MIC, S. pneumoniae ATCC 49619; type: cell-based, Streptococcus pneumoniae; conditions: S. pneumoniae ATCC 49619, erythromycin sensitive strain, average where multiple assays
Method: as §1

S. pneumoniae ATCC 6301 = assay: microdilution assay MIC, S. pneumoniae ATCC 6301; type: cell-based, Streptococcus pneumoniae; conditions: S. pneumoniae ATCC 6301, erythromycin sensitive strain, average where multiple assays
Method: as §1

[7] = S. pneumoniae ATCC 700676, erythromycin A resistant strain, average where multiple assays
[8] = S. aureus ATCC 14154, erythromycin A resistant strain, average where multiple assays
[9] = S. pneumoniae ATCC 700906, erythromycin A resistant strain, average where multiple assays
[10] = S. pneumoniae ATCC 700677, erythromycin A resistant strain, average where multiple assays
[11] = S. pneumoniae ATCC 700905, erythromycin A resistant strain, average where multiple assays

| Compound | MIC [1, 7] [µg/mL] | MIC (S. aureus ATCC 29213) [µg/mL] | MIC (S. aureus ATCC 14154; [8]) [µg/mL] | MIC [2, 9] [µg/mL] | MIC (S. aureus ATCC 6538p) [µg/mL] | MIC (H. influenzae ATCC 9006; average where multiple assays) [µg/mL] | MIC [3, 10] [µg/mL] | MIC (H. influenzae ATCC 49766; average where multiple assays) [µg/mL] | MIC ([4]; average where multiple assays) [µg/mL] | MIC (E. faecalis ATCC 51575; average where multiple assays) [µg/mL] | MIC [5, 11] [µg/mL] | MIC [6] [µg/mL] | MIC (S. pneumoniae ATCC 49619) [µg/mL] | MIC (S. pneumoniae ATCC 6301) [µg/mL] | other results |
| --- | --- | --- | --- | --- | --- | --- | --- | --- | --- | --- | --- | --- | --- | --- | --- |
| COC1(C)CC(C)C(=O)C(C)C2NC(=O)OC2(C)C(CCNS(=O)(=O)c2ccc3ccccc3c2)OC(=O)C(C)C(=O)C(C)C1OC1OC(C)CC(N(C)C)C1O (stereo not shown) [Compound 107] | 0.01 | 0.025 | 1.56 | 3.12 | 0.01 | 12.5 | 0.01 | 12.5 | 0.025 | 0.025 | 0.01 | 0.01 | 0.01 | 0.01 | – |
| COC1(C)CC(C)C(=O)C(C)C2NC(=O)OC2(C)C(CCN(C)CCc2cccc(-c3ccco3)c2)OC(=O)C(C)C(=O)C(C)C1OC1OC(C)CC(N(C)C)C1O (stereo not shown) [Compound 103] | 0.049 | 0.39 | 0.39 | >12.5 | 0.098 | >12.5 | 0.098 | >12.5 | 0.049 | 12.5 | 0.049 | 0.049 | 0.049 | 0.049 | – |
| COC1(C)CC(C)C(=O)C(C)C2NC(=O)OC2(C)C(CCNS(=O)(=O)c2cccc(-c3ccco3)c2)OC(=O)C(C)C(=O)C(C)C1OC1OC(C)CC(N(C)C)C1O (stereo not shown) [Compound 108] | 0.025 | 0.025 | 0.049 | 0.049 | 0.025 | 12.5 | 0.025 | >12.5 | 0.025 | 0.025 | 0.025 | 0.025 | 0.025 | 0.025 | – |
| COC1(C)CC(C)C(=O)C(C)C2NC(=O)OC2(C)C(CCNS(=O)(=O)c2cccc3ccccc23)OC(=O)C(C)C(=O)C(C)C1OC1OC(C)CC(N(C)C)C1O (stereo not shown) [Compound 106] | 0.01 | 0.025 | 3.12 | 12.5 | 0.01 | 6.25 | 0.01 | 6.25 | 0.025 | 0.025 | 0.01 | 0.01 | 0.01 | 0.01 | – |
| CC[C@H]1OC(=O)[C@H](C)C(=O)[C@H](C)[C@@H](O[C@@H]2O[C@H](C)C[C@H](N(C)C)[C@H]2O)[C@](C)(OC)C[C@@H](C)C(=O)[C@H](C)[C@H]2N(CCCCn3cnc(-c4cccnc4)c3)C(=O)O[C@]12C [Tel, telithromycin, reference compound] | – | – | – | – | – | – | – | – | – | – | – | – | – | – | MIC ([1]; Streptococcus pneumoniae, ATCC700676, read-out: MIC): 0.098 µg/mL; MIC (S. aureus ATCC 29213; Staphylococcus aureus, ATCC29213, read-out: MIC): 0.025 µg/mL; MIC (S. aureus ATCC 14154; Staphylococcus aureus, ATCC14154, read-out: MIC): > 12.5 µg/mL; MIC ([2]; Streptococcus pneumoniae, ATCC700906, read-out: MIC): 0.2 µg/mL; MIC (S. aureus ATCC 6538p; Staphylococcus aureus, ATCC6538P, read-out: MIC): 0.025 µg/mL; MIC (H. influenzae ATCC 9006; Haemophilus influenzae, ATCC9006, average where multiple assays, read-out: MIC): 1.56 µg/mL; MIC ([3]; Streptococcus pneumoniae, ATCC700677, read-out: MIC): 0.025 µg/mL; MIC (H. influenzae ATCC 49766; Haemophilus influenzae, ATCC49766, average where multiple assays, read-out: MIC): 3.12 µg/mL; MIC ([4]; Staphylococcus epidermidis, ATCC12228, average where multiple assays, read-out: MIC): 0.025 µg/mL; MIC (E. faecalis ATCC 51575; Enterococcus faecalis, ATCC51575, average where multiple assays, read-out: MIC): > 12.5 µg/mL; MIC ([5]; Streptococcus pneumoniae, ATCC700905, read-out: MIC): 0.025 µg/mL; MIC ([6]; Streptococcus pneumoniae, ATCC700671, read-out: MIC): 0.025 µg/mL; MIC (S. pneumoniae ATCC 49619; Streptococcus pneumoniae, ATCC49619, read-out: MIC): 0.049 µg/mL; MIC (S. pneumoniae ATCC 6301; Streptococcus pneumoniae, ATCC6301, read-out: MIC): 0.025 µg/mL |
